Data as given in US10918733B2, “Lipopeptide- and lipoprotein-conjugates and its use” (HELMHOLTZ-ZENTRUM FUER INFEKTIONSFORSCHUNG GMBH, priority 2009, dated 2021).

B1: LPS free Ova: EndoGrade Ovalbumin, Hyglos GmbH (protein, UniProt P01012 2-386, looked up)
Ovalbumin: GSIGAASMEFCFDVFKELKVHHANENIFYCPIAIMSALAMVYLGAKDSTRTQINKVVRFDKLPGFGDSIEAQCGTSVNVHSSLRDILNQITKPNDVYSFSLASRLYAEERYPILPEYLQCVKELYRGGLEPINFQTAADQARELINSWVESQTNGIIRNVLQPSSVDSQTAMVLVNAIVFKGLWEKAFKDEDTQAMPFRVTEQESKPVQMMYQIGLFRVASMASEKMKILELPFASGTMSMLVLLPDEVSGLEQLESIINFEKLTEWTSSNVMEERKIKVYLPRMKMEEKYNLTSVLMAMGITDVFSSSANLSGISSAESLKISQAVHAAHAEINEAGREVVGSAEAGVDAASVSEEFRADHPFLFCIKHIATNAVLFFGRCVSP
modifications: endotoxin-free
notes: EndoGrade Ovalbumin, Hyglos GmbH

Assays:
[1] = system: Ova-specific CD4+CD25+Foxp3+ regulatory T cells; assay: Proliferation of T cells co-cultured with treated DC: regulatory T cells; assay type: cell-based, OTII mice; details: DC incubated with 10 μg/mL for 24 h, co-culture 4 days
Protocol: (§1) T cell-mediated immune responses were investigated 96 h by measuring the proliferation of cells recovered from spleens after restimulation with BPPcysOva^mPEG. Non-Ag restimulated spleen cells were chosen as negative controls (FIG. 3). […] Taking into consideration that the BPPcysOva^mPEG has a promising effect on DC activation and maturation, next the capacity of these APC to stimulate the proliferation of antigen-specific CD8+ and CD4+ T cells was evaluated. Concentrations below 10^−8 M of BPPcysOva^mPEG were still able to induce an antigen specific proliferation of CD4+ T cells shown by the reduction of CFSE+ cells (FIGS. 4A-E).
(§2) FIG. 4: Proliferation of CD8+, CD4+ and regulatory T cells. DC were generated from bone marrow of C57BL/6 mice and incubated with 10 μg/mL of B) Ova C) Ova peptides, D) Ova in the presence of BPPcysMPEG and E) BPPcysOva^mPEG alone (A) Control) for 24 h. The following day, CD4+ T cells from spleens of OT2-tg animals or CD8+ T cells of OT1-tg animals were isolated. After staining with CFSE, CD8+, CD4+ T cells were co-cultured with adjuvant-treated DCs for 4 days. The decrease of CFSE-FITC expression due to cell division of CD8+ or CD4+ T cells were analysed by flow cytometric analysis. One representative experiment out of two is shown.

[2] = system: Ova-specific CD8+ T cells; assay: Proliferation of CFSE-stained T cells co-cultured with treated DC: CD8+ T cells; assay type: cell-based, OT1-tg mice; details: DC incubated with 10 μg/mL for 24 h, co-culture 4 days
Protocol: as §1, §2

spleen cells = assay: Proliferation of spleen cells of immunized mice after in vitro restimulation with Ova, day 42 (Example 5); assay type: in vivo; details: i.n., restimulation with Ova
Protocol: Experimental protocol: Spleens were removed and pooled for analysis of cellular immune responses. Cells were grown in RPMI 1640 supplemented with 10% fetal calf serum, 100 U/ml of penicillin, 50 μg/ml of streptomycin, 5×10^−5 M 2-mercaptoethanol and 1 mM L-glutamine (GIBCO BRL, Karlsruhe, Germany) and maintained at 37° C. in a humidified 5% CO2 atmosphere. Lymph node and spleen cell suspensions were adjusted to 5×10^6 cells/ml in complete medium, cells were seeded with 100 μl per well in a flat-bottomed 96-well microtiter plate (Nunc) and plates were incubated for 4 days in the presence of different concentrations of Ova. Each concentration was tested in triplicates. During the final 18 h of culture, 1 μCi of [^3H]thymidine (Amersham International, Freiburg, Germany) was added to each well. Cells were then harvested on paper filters (Filtermat A; Wallac, Freiburg, Germany) by using a cell harvester (Inotech, Wohlen, Switzerland), and the amount of incorporated [^3H]thymidine into the DNA of proliferating cells was determined by a β-scintillation counter (Wallac 1450, Micro-Trilux). The results are expressed as the arithmetic mean of [^3H]thymidine uptake in cpm.
T cell-mediated immune responses were investigated at day 42 by measuring the proliferation of cells recovered from spleens after in vitro restimulation with Ova. […]

Molecule | stimulation of proliferation of Ova-specific CD4+CD25+Foxp3+ regulatory T cells by treated DC [1] | stimulation of proliferation of Ova-specific CD8+ T cells by treated DC [2] | proliferative response of spleen cells, i.n. immunization (spleen cells)
CD4 peptide: Ova CD4 epitope peptide alone (KISQAVHAAHAEINEAG; UniProt P01012 323-339, looked up, fragment) [reference compound] | very efficiently | weak stimulation | –
B1 | – | – | failed to induce detectable cellular proliferation
